Results: patent US20240058403A1, “YEAST PARTICLES FOR DELIVERY OF WATER-ACTIVATED SELF-EMULSIFYING CANNABINOID FORMULATIONS” (UNIVERSITY OF MASSACHUSETTS, priority 2022, published 2024)
Entries after “also recorded” stand apart in the source; their conditions may differ. Like-named read-outs stand apart in the source and are kept apart here.

Tests used:
[1] = Sustained CBD release from GLPs with sequestering/release agents in simulated saliva; assay type: physicochemical
Procedure: GLPs were loaded at a weight ratio of CBD:OA:GLP of 2:1:1. […] Aliquots (200 μL) were collected at 1, 3, 6 and 24 h and the samples were centrifuged to separate supernatant (released CBD fraction) and GLP pellet. Released CBD was quantified in the supernatants by HPLC as described before.
The effect of addition of RAs to CBD with OA as SA was tested.
GLPs were loaded with CBD, OA and various RAs. Release assays were performed by the procedure described as before.
[…] Aliquots (200 μL) were collected at 1, 3, 6 and 24 h and the samples were centrifuged to separate supernatant (released CBD fraction) and GLP pellet. Released CBD was quantified in the supernatants by HPLC as described before.

[2] = Fast release of cannabinoids from GLPs embedded in adjuvant, simulated saliva with or without tissue, 1 minute; assay type: physicochemical; details: for cannabinoid release from GLP in 1 minute: cannabinoid loaded alone, no release agent; for THC released in 1 minute: 37° C.
Procedure: Composition of simulated saliva was 0.72 g/L potassium chloride, 0.22 g/L calcium chloride dihydrate, 0.68 g/L potassium phosphate monobasic, 0.866 g/L sodium phosphate dibasic, 1.5 g/L potassium bicarbonate, 0.06 g/L potassium thiocyanate, and 0.03 g/L citric acid. Samples of dry GLP-THC (4 mg) were resuspended in 1 mL of (A) water, (B) dry glycerin or (C) SEDDS mixture (3.3 mg/mL lecithin in 3% MCT in glycerin). The GLP THC suspensions were diluted with simulated saliva (25% simulated saliva+75% GLP THC in solvent mixture) with and without the addition of a sample of 75-100 mg fat tissue. The samples were incubated for 1 minute at 37° C., and then the fractions were separated to quantify THC in the GLP pellet (THC not released), THC in supernatant (released) and THC in the tissue (released from GLP and absorbed by the tissue). The THC absorbed in the tissue was extracted in 100% methanol and the THC remaining in GLPs was extracted in 80% ethanol-20% water. The THC in all fractions was quantified by HPLC.
GLPs were loaded with a THC:GLP weight ratio of 1:1 and embedded in different solvents. THC release was achieved and quantified as described before (FIG. 9).
GLPs were loaded with a THC and undecanoic acid as a release agent (RA). Loaded GLPs were embedded in adjuvants (water, glycerin or SEDDS mixture). THC release was achieved and quantified as described before (FIG. 9).
GLPs were loaded with a CBD, CBN or CBG and octanoic acid as a RA. Loaded GLPs were embedded in adjuvant water or SEDDS mixture. Cannabinoid release was achieved and quantified as described before for THC (FIG. 9).

S. cerevisiae = details: by enhancing potassium leakage and disrupting membrane fluidity; cited from earlier work
H. pylori = details: cited from earlier work
C. albicans = details: by enhancing potassium leakage and disrupting membrane fluidity; cited from earlier work
[3] = Micelle size of CBD-SA-RA emulsions; assay type: physicochemical
[4] = Stability of CBD-SA-RA o/w emulsions; assay type: physicochemical; details: for Stable CBD o/w emulsion: 1 mg/mL in water, room temperature 30 minutes; for Stable CBD-OA-RA o/w emulsion: 1 mg/mL in water by sonication, room temperature for 30 minutes, precipitate/phase partitioning = unstable
[5] = Release of oleamide from GLPs in simulated saliva with or without tissue; assay type: physicochemical
Procedure: The release of oleamide encapsulated in GLPs using octanoic acid or undecanoic acid as loading solvent or as leave-in solvent was tested. To perform the release assay, the GLP-oleamide suspensions were diluted with simulated saliva (25% simulated saliva+75% GLP in solvent mixture) with and without the addition of a sample of 75-100 mg fat tissue. […], and then the fractions were separated to quantify oleamide in the GLP pellet (unreleased oleamide), oleamide in the supernatant (released) and oleamide in the tissue (released from GLP and absorbed by the tissue). The oleamide absorbed in the tissue was extracted in 100% methanol and the oleamide remaining in GLPs was extracted in 80% ethanol-20% water. The oleamide in all fractions was quantified by HPLC. […] Oleamide was released at a low efficiency (2%) from GLPs with simulated saliva and higher efficiency (34-40%) with simulated saliva and tissue. The addition of UA as the leave-in solvent increased OA release from 34% to 46% in 5 minutes and from 40% to 58% with simulated saliva and tissue

[6] = Sustained THC release from GLP-THC-UDA with or without RA in simulated saliva + tissue; assay type: physicochemical; details: simulated saliva + tissue at 37° C.; 1 to 24 h
Procedure: GLPs were loaded at a weight ratio of CBD:OA:GLP of 2:1:1. Dry GLP-CBD (5 mg) were resuspended in 1 mL of simulated saliva, a 75-100 mg piece of simulated tissue was added to the sample and incubated at 37° C. with constant mixing. Aliquots (200 μL) were collected at 1, 3, 6 and 24 h and the samples were centrifuged to separate supernatant (released CBD fraction) and GLP pellet. Released CBD was quantified in the supernatants by HPLC as described before.
The effect of addition of RAs to THC with UDA as SA was tested. Release assays were performed as described as before.

[7] = Maximum solubility of surfactants in OA or UDA; assay type: physicochemical
[8] = Physical state of THC-UDA-RA mixture at room temperature; assay type: physicochemical
Procedure: Various RAs were tested as described before for their ability to stabilize micelles formed when GLPs encapsulate THC as the payload and UDA as the SA.

[9] = hydrophilic-lipophilic balance; cited from earlier work
[10] = CBD-SA-RA emulsion, RA TRITON X100 20 % w/w

**Q.** Which “time after which CBD release plateaued” value ([1]; GLPs CBD:OA:GLP 2:1:1, OA as SA, simulated saliva) does the source give for `C=C(C)[C@@H]1CCC(C)=C[C@H]1c1c(O)cc(CCCCC)cc1O` [CBD, cannabidiol, reference compound] here?
**A.** 6 h

**Q.** What about the “CBD released after 24 h incubation” value ([1]; GLPs CBD:OA:GLP 2:1:1, OA as SA, simulated saliva (without simulated tissue), 37° C.) of the same molecule?
**A.** ≤ 25%

**Q.** What about the “cannabinoid release from GLP in 1 minute” value [2] of the same molecule?
**A.** do not release efficiently

**Q.** With `CCCCCc1cc(O)c(C/C=C(\C)CCC=C(C)C)c(O)c1` [CBG, cannabigerol] as the molecule, how does the “cannabinoid release from GLP in 1 minute” value [2] read?
**A.** do not release efficiently

**Q.** Which “cannabinoid release from GLP in 1 minute” value [2] does the source give for `CCCCCc1cc(O)c2c(c1)OC(C)(C)c1ccc(C)cc1-2` [CBN, cannabinol] here?
**A.** do not release efficiently

**Q.** With `CC(C)=CCC/C(C)=C/CO` [Geraniol] as the molecule, how does the growth inhibition (S. cerevisiae) read?
**A.** inhibit the growth

**Q.** What about the “concentration that inhibited in vitro growth” value (H. pylori) of the same molecule?
**A.** 2 mg/L

**Q.** And the growth inhibition (C. albicans)?
**A.** inhibit the growth

**Q.** With `C=CC(C)(O)CCC=C(C)CCC=C(C)C` (stereo not shown) [Nerolidol] as the molecule, how does the “total CBD release at 24 hours” value ([1]; SA plus TRITON X-100 as RA, simulated saliva + tissue at 37° C.) read?
**A.** 37%

**Q.** What about the “course of CBD release with SA and TRITON X-100 as RA” value ([1]; simulated saliva + tissue at 37° C.) of the same molecule?
**A.** did not lead to CBD release in the first 6 hours

**Q.** And the “CBD-SA-RA micelle size (nm)” value ([3]; RA TRITON X100 20 % w/w)?
**A.** 661 nm

**Q.** And the “CBD-SA-RA micelle size (nm)” value ([3]; without RA)?
**A.** 1260 nm

**Q.** What about the “Stable CBD o/w emulsion” value ([4]; CBD-SA emulsion without RA) of the same molecule?
**A.** No

**Q.** And the “Stable CBD o/w emulsion” value [4, 10]?
**A.** Yes

**Q.** Which “CBD-SA-RA micelle size (nm)” value ([3]; without RA) does the source give for `CCCCCCCC(=O)O` [Octanoic acid] here?
**A.** 379 nm

**Q.** And the “Stable CBD o/w emulsion” value ([4]; CBD-SA emulsion without RA)?
**A.** No

**Q.** And the “Stable CBD o/w emulsion” value [4, 10]?
**A.** Yes

**Q.** Which results are given for `CCCCCCCC/C=C\CCCCCCCC(N)=O` [Oleamide, oleamide]?
**A.** % oleamide Released ([5]; simulated saliva (no tissue), 1 hour): 2%; % oleamide Released ([5]; simulated saliva + tissue, 5 minutes): 34%; % oleamide Released ([5]; simulated saliva + tissue, 1 hour): 40%; oleamide release efficiency ([5]; simulated saliva and tissue, 5 minutes to 1 hour): 34-40%

**Q.** For `CCCCCc1cc(O)c2c(c1)OC(C)(C)[C@@H]1CCC(C)=C[C@@H]21` [THC, tetrahydrocannabinol], which “THC released in 1 minute” value ([2]; GLPs (THC:GLP 1:1) embedded in SEDDS mixture (lecithin/MCT/glycerin), simulated saliva with tissue) is on record?
**A.** up to 53%

**Q.** And the “THC released in 1 minute” value ([2]; GLPs (THC:GLP 1:1) embedded in SEDDS mixture (lecithin/MCT/glycerin), simulated saliva without tissue)?
**A.** Up to 30%

**Q.** What about the “THC released in 1 minute” value ([2]; GLPs (THC:GLP 1:1) embedded in glycerin, simulated saliva containing tissue) of the same molecule?
**A.** Up to 30%

**Q.** For TRITON ™ X-100, which “fold increase of CBD release compared to GLP-CBD-OA control sample” value ([1]; GLP-CBD-OA-RA, simulated saliva with tissue) is on record?
**A.** 1.7-2.0 fold

**Q.** And the “effect of RA on sustained CBD release from GLP-CBD-OA” value ([1]; simulated saliva with tissue, 1 to 6 hours)?
**A.** improvement of sustained release from 1 to 6 hours

**Q.** What about the “effect of RA on sustained THC release from GLP-THC-UDA” value [6] of the same molecule?
**A.** did not improve sustained release from 1 to 6 h; also recorded: yielded high THC release at the 24 hour time point

**Q.** And the “Maximum solubility in OA” value [7]?
**A.** 20% w/w

**Q.** And the “Maximum solubility in UDA” value [7]?
**A.** 37.5% w/w

**Q.** And the “Physical State of THC-UDA-RA mixture at room temperature” value [8]?
**A.** mixture of oil and solid UDA

**Q.** What about the “Physical State of THC-UDA-RA mixture at room temperature” value ([8]; listed as TRITONTM X-100) of the same molecule?
**A.** Solid

**Q.** What about the “Stable CBD-OA-RA o/w emulsion” value [4] of the same molecule?
**A.** Yes

**Q.** What about the “Stable CBD-OA-RA o/w emulsion” value ([4]; listed as TRITON™ X-100) of the same molecule?
**A.** form stable micelles

**Q.** What about the HLB [9] of the same molecule?
**A.** 13.5

**Q.** Which “Maximum solubility in OA” value [7] does the source give for TWEEN 20 here?
**A.** 20% w/w

**Q.** What about the “Stable CBD-OA-RA o/w emulsion” value [4] of the same molecule?
**A.** No

**Q.** What about the HLB [9] of the same molecule?
**A.** 16.7

**Q.** Which results are given for TWEEN 80?
**A.** Maximum solubility in OA [7]: 25% w/w; Stable CBD-OA-RA o/w emulsion [4]: No; HLB [9]: 15
